Test results from US11292760B2, “Therapeutic acrylates as enhanced medical adhesives” (Carnegie Mellon University, priority 2016, dated 2022).

How the values were obtained:
[1] = Solubility of TMA monomer in adhesive monomers; assay type: physicochemical
[2] = Time-lapse 1H NMR of hydrolysis after exposure to D2O; assay type: physicochemical; details: monomer dissolved in CDCl3, 1H NMR
Experimental: […] One drop of deuterium oxide (D2O, EMD Millipore) was then added and the sample inverted gently once to mix. Spectra were recorded immediately, then periodically for the next two hours.

solubility in BCA monomer ([1]; 25% TMA by weight in the adhesive, preliminary formulation tests) | solubility in methyl methacrylate monomer ([1]; commercial formulation) | solubility in n-butyl cyanoacrylate ([1]; commercial formulation) | time course of anhydride bond hydrolysis after exposure to D2O [2] [min] | Structure (SMILES)
excellent solubility | – | – | – | C=C(C)C(=O)Nc1ccc(C(=O)OCC)cc1 [BenzMA, Benzocaine Methacrylamide]
– | soluble | soluble | 90 | C=C(C)C(=O)OC(=O)C(C)c1ccc(CC(C)C)cc1 (stereo not shown) [IbuMA, Ibuprofen Methacrylic Anhydride]
